Experimental data taken from ChEMBL document CHEMBL5725882, “Imide and acylurea derivatives as modulators of the glucocorticoid receptor” (2017).

These compounds were tested against T1, Glucocorticoid receptor (Homo sapiens, UniProt P04150) (assay: Briefly, purified human recombinant full-length glucocorticoid receptor (2 nM) was mixed with fluorescently labeled glucocorticoid (1 nM Fluormone GS Red) in the presence or absence of test compound. After two hour incubation at room temperature in the dark, the fluorescence polarization (FP) of the samples was measured. […] Test compounds were analyzed in the concentration range from 8.5E-05 μM to 5 μM. Binding Assay (II):In order to measure the binding of compounds on the glucocorticoid receptor a commercially available kit was used (Glucocorticoid receptor competitor assay kit, PanVera Co., Madison, Wis., P2816). Briefly, a cell lysate containing recombinantly expressed human full-length glucocorticoid receptor was mixed with a fluorescently labeled glucocorticoid (1 nM Fluormone GS1) in the presence or absence of test compound. After one hour at room temperature, the fluorescence polarization (FP) of the samples were measured. […] An appropriate cell lysate or purified NHR is used as the source of the NHR. The fluorescent probe and unlabeled competitor are appropriate for the specific NHR, i.e., are ligands for the specific NHR.).
T1 sequence (P04150 whole entry): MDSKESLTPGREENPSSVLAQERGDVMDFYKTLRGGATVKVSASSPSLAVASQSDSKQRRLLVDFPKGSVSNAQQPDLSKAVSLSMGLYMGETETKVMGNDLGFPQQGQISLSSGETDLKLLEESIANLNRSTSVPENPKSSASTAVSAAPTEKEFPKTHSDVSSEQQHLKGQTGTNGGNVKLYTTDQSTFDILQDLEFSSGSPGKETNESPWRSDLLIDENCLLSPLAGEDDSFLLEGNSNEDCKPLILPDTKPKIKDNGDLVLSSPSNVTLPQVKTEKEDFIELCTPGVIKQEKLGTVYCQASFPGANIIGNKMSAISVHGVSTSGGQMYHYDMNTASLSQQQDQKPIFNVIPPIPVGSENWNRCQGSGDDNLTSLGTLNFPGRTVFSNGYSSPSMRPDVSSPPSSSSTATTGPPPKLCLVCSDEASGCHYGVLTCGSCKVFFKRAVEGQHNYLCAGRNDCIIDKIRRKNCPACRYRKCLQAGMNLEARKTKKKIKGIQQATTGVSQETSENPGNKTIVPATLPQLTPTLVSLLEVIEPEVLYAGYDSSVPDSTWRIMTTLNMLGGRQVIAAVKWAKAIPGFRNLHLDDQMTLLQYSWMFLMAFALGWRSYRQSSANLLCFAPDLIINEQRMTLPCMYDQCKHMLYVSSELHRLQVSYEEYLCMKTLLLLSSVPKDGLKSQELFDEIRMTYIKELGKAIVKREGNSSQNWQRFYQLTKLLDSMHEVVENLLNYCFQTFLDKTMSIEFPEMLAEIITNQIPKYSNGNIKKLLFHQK

Ki [nM] | SMILES
93.5 | CC(=O)NC(=O)C(C)(C)[C@@H]1c2ccc(-c3ccc(C(=O)N(C)C)cc3)nc2Oc2c(F)cccc21
1.81 | CC(C)(C(=O)NC(N)=O)[C@H]1c2ccccc2Oc2nc(-c3ccc(C(=O)N4CCOCC4)cc3)ccc21
1.42 | CNC(=O)NC(=O)C(C)(C)[C@@H]1c2ccc(-c3ccc(C(C)(C)O)cc3)nc2Oc2c(F)cccc21
7.01 | CC(=O)NC(=O)C(C)(C)[C@H]1c2ccccc2Oc2nc(-c3ccc(C(=O)N4CCOCC4)cc3)ccc21
5.28 | COC(=O)NC(=O)C(C)(C)[C@@H]1c2ccc(-c3ccc(C(=O)OC)cc3)nc2Oc2c(F)cccc21
61.7 | CC(C)(C(=O)NC(=O)NCCO)[C@@H]1c2ccc(-c3ccc(C(=O)N4CCOCC4)cc3)nc2Oc2c(F)cccc21
32.4 | CC(C)NC(=O)NC(=O)C(C)(C)[C@@H]1c2ccc(-c3ccc(C(=O)N4CCOCC4)cc3)nc2Oc2c(F)cccc21
25.1 | CC(C)(O)c1ccc(-c2ccc3c(n2)Oc2c(F)cccc2[C@@H]3C(C)(C)C(=O)NC(=O)NCCO)cc1
87.1 | CC(C)(O)CNC(=O)NC(=O)C(C)(C)[C@@H]1c2ccc(-c3ccc(C(=O)N4CCOCC4)cc3)nc2Oc2c(F)cccc21
0.58 | CC(C)S(=O)(=O)c1ccc(-c2ccc3c(n2)Oc2ccccc2[C@@H]3C(C)(C)C(=O)NC(N)=O)cc1
37.5 | CNC(=O)NC(=O)C(C)(C)[C@@H]1c2ccc(Cl)nc2Oc2c(F)cccc21
66.5 | CCC(=O)NC(=O)C(C)(C)[C@@H]1c2ccc(-c3ccc(C(=O)N4CCOCC4)cc3)nc2Oc2c(F)cccc21
20.8 | CC(C)(O)CNC(=O)NC(=O)C(C)(C)[C@@H]1c2ccc(-c3ccc(C(C)(C)O)cc3)nc2Oc2c(F)cccc21
171 | CC(C)(C(=O)NC(=O)N1CCOCC1)[C@@H]1c2ccc(-c3ccc(C(=O)N4CCOCC4)cc3)nc2Oc2c(F)cccc21

SMILES | Ki [nM]
COc1ccc2c(c1)Oc1ccccc1[C@@H]2C(C)(C)C(=O)NC(N)=O | 8.57
CC(C)(O)c1ccc(-c2ccc3c(n2)Oc2c(F)cccc2[C@@H]3C(C)(C)C(=O)NC(N)=O)cc1 | 0.32
CC(C)(C(=O)NC(N)=O)[C@@H]1c2ccc(-c3ccc(C(=O)N4CCC4)cc3)nc2Oc2c(F)cccc21 | 0.93
